Values of other authors in US20250221949A1, “ANTISEPTIC, ANTISEBORRHEIC, EXFOLIATING COMPOSITION TO REMOVE OR PREVENT ACNE” (Excalibur Pharmaceuticals, Inc., priority 2012, published 2025).

Tested on: Candida albicans, some Trichomonas, Staphylococcus aureus; Escherichia coli, Salmonella typhi, S. paratyphi, Shigella dysenterica and Vibro cholera species
Settings: background statement

## C=CCS[S+]([O-])CC=C (stereo not shown) [DDO, diallyl disulphide oxide]
  in vitro activity against microorganisms (in words): has in vitro activity
